What all share (type): biochemical
The target in one experiment is T1, FGFR2 (Homo sapiens, UniProt P21802).
T1 construct: purchased Millipore or Invitrogen
In words: FGFR Enzymatic Assay (FRET peptide phosphorylation), FGFR2. The settings on record: FGFR2 0.01 nM, ATP 100 μM. Here is the method: (§1) The inhibitor potency of the Example compounds was measured in an enzyme assay that measures peptide phosphorylation using FRET measurements to detect product formation. Inhibitors were serially diluted in DMSO and a volume of 0.5 μL was transferred to the wells of a 384-well plate. For FGFR3, a 10 μL volume of FGFR3 enzyme (Millipore) diluted in assay buffer (50 mM HEPES, 10 mM MgCl2, 1 mM EGTA, 0.01% Tween-20, 5 mM DTT, pH 7.5) was added to the plate and pre-incubated for 5-10 minutes. Appropriate controls (enzyme blank and enzyme with no inhibitor) were included on the plate. The assay was initiated by the addition of a 10 μL solution containing biotinylated EQEDEPEGDYFEWLE peptide substrate (SEQ ID NO: 1) and ATP (final concentrations of 500 nM and 140 μM respectively) in assay buffer to the wells. The plate was incubated at 25° C. for 1 hr. The reactions were ended with the addition of 10 μL/well of quench solution (50 mM Tris, 150 mM NaCl, 0.5 mg/mL BSA, pH˜7.8, 30 mM EDTA with Perkin Elmer Lance Detection Reagents at 3.75 nM Eu-antibody PY20 and 180 nM APC-Streptavidin). The plate was allowed to equilibrate for 1 hour before scanning the wells on a PheraStar plate reader (BMG Labtech). The enzymes were purchased from Millipore or Invitrogen.
(§2) FGFR1 and FGFR2 were measured under equivalent conditions with the following changes in enzyme and ATP concentrations: FGFR1, 0.02 nM and 210 μM, respectively and FGFR2, 0.01 nM and 100 μM, respectively.
(§3) GraphPad prism3 was used to analyze the data. The IC50 values were derived by fitting the data to the equation for a sigmoidal dose-response with a variable slope. Y=Bottom+(Top−Bottom)/(1+10^((Log IC50−X)*HillSlope)) where X is the logarithm of concentration and Y is the response.

Another experiment concerns the target T2, FGFR3 (Homo sapiens, UniProt P22607).
T2 construct: purchased Millipore
Put plainly: FGFR Enzymatic Assay (FRET peptide phosphorylation), FGFR3. The settings on record: ATP 140 μM, 25° C. for 1 hr. Here is the method: as §1, §3

Another experiment has as its target T3, FGFR1 (Homo sapiens, UniProt P11362).
T3 construct: purchased Millipore or Invitrogen
Put plainly: FGFR Enzymatic Assay (FRET peptide phosphorylation), FGFR1. The settings on record: FGFR1 0.02 nM, ATP 210 μM. Here is the method: as §1, §2, §3

Each structure is given as a SMILES string.

T1 sequence (P21802 22-821): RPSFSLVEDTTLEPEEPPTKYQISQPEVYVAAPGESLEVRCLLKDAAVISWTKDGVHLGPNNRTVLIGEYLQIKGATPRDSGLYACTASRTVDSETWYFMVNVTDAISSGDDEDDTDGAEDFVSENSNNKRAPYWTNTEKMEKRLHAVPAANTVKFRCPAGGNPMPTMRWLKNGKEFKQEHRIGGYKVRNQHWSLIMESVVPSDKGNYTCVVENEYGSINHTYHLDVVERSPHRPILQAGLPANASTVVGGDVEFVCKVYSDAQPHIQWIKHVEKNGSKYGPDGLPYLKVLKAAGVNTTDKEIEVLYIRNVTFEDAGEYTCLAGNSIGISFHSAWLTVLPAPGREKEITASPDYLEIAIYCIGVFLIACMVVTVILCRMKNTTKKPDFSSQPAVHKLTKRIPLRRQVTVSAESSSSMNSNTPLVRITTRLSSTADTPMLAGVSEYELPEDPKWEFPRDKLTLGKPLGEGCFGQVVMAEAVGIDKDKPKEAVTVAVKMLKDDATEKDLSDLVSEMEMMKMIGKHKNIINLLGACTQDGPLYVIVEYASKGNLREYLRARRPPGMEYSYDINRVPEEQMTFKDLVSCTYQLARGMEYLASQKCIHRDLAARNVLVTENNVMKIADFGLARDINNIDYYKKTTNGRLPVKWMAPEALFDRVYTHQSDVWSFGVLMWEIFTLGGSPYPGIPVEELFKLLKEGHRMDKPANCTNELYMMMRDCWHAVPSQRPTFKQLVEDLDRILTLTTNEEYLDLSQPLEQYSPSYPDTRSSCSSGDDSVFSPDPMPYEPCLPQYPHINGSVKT
T2 sequence (P22607 23-806): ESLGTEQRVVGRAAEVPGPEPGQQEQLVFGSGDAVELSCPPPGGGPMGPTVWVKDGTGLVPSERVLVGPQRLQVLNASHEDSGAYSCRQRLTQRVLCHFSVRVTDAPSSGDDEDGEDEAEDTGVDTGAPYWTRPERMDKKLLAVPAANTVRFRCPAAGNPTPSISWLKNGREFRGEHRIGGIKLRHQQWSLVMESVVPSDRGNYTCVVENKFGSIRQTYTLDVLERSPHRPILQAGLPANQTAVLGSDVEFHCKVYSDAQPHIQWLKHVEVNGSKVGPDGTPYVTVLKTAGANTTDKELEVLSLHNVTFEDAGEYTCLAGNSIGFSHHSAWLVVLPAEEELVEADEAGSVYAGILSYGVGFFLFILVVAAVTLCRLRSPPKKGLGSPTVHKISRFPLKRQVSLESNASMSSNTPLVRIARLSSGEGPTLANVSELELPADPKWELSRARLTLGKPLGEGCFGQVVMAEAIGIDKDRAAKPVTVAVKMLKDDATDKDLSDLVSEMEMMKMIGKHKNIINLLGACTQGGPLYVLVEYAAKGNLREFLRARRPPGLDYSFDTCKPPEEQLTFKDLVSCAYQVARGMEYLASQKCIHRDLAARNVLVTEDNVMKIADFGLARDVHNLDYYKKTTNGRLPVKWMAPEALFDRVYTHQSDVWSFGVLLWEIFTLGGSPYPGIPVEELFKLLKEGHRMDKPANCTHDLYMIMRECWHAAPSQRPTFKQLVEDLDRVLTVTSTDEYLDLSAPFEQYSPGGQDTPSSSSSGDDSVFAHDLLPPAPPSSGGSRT
T3 sequence (P11362 22-822): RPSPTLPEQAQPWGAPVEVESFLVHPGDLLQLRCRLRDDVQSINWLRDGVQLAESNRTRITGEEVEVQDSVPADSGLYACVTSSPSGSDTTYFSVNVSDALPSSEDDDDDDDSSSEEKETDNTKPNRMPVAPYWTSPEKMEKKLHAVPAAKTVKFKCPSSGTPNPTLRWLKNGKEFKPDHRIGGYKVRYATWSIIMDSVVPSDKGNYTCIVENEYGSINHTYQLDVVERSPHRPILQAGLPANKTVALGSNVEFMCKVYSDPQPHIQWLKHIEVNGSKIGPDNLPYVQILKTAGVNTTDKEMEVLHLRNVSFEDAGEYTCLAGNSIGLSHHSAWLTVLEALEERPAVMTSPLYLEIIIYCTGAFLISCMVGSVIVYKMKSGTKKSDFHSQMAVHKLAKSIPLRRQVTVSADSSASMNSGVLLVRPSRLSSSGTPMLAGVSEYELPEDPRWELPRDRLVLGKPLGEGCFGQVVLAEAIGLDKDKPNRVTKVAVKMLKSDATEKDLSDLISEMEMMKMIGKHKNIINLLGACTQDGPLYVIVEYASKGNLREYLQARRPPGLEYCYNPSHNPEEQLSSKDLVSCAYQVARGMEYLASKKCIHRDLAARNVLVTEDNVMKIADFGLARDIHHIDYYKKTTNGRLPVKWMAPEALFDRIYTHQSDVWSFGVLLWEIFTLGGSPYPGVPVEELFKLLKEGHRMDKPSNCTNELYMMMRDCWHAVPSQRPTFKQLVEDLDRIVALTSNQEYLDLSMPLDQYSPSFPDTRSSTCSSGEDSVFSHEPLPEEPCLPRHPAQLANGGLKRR

As to `COc1ccc(C#Cc2n[nH]c3nc(-c4c(F)c(OC)cc(OC)c4F)ncc23)cc1` [Example 14, 6-(2,6-Difluoro-3,5-dimethoxyphenyl)-3-[(4-methoxyphenyl)ethynyl]-1H-pyrazolo[3,4-d]pyrimidine], the IC50 on FGFR2, on FGFR3 and against FGFR1 was below 100 nM throughout.

Consider `COc1cc(OC)c(F)c(-c2ncc3c(-c4cnn(C)c4)n[nH]c3n2)c1F` [Example 87, 6-(2,6-Difluoro-3,5-dimethoxyphenyl)-3-(1-methyl-1H-pyrazol-4-yl)-1H-pyrazolo[3,4-d]pyrimidine], for which the IC50 against FGFR2, against FGFR3 and at FGFR1 was below 100 nM throughout.

`COc1cc(OC)c(F)c(-c2cc3[nH]nc(-c4ccc(N5CCN(C)CC5)nc4)c3cn2)c1F` [Example 26, 6-(2,6-Difluoro-3,5-dimethoxyphenyl)-3-[6-(4-methylpiperazin-1-yl)pyridin-3-yl]-1H-pyrazolo[4,3-c]pyridine]: the IC50 on FGFR2, against FGFR3 and against FGFR1 was below 100 nM in each case.

For the compound `COc1cc(OC)c(F)c(-c2cc3[nH]nc(-c4ccc5c(c4)CN(C4CCOCC4)C5=O)c3cn2)c1F` [Example 59, 5-[6-(2,6-Difluoro-3,5-dimethoxyphenyl)-1H-pyrazolo[4,3-c]pyridin-3-yl]-2-(tetrahydro-2H-pyran-4-yl)isoindolin-1-one], the IC50 on FGFR2, against FGFR3 and at FGFR1 was below 100 nM throughout.

On to `COc1cc(OC)c(F)c(-c2ncc3c(-c4ccc5c(c4)CN(S(C)(=O)=O)CC5)n[nH]c3n2)c1F` [Example 85, 7-[6-(2,6-Difluoro-3,5-dimethoxyphenyl)-1H-pyrazolo[3,4-d]pyrimidin-3-yl]-2-(methylsulfonyl)-1,2,3,4-tetrahydroisoquinoline], for which the IC50 on FGFR2, on FGFR3 and on FGFR1 was below 100 nM throughout.

With `COc1cc(OC)c(F)c(-c2cc3[nH]nc(-c4ccnc(N5CCN(C)CC5)c4)c3cn2)c1F` [Example 27, 6-(2,6-Difluoro-3,5-dimethoxyphenyl)-3-[2-(4-methylpiperazin-1-yl)pyridin-4-yl]-1H-pyrazolo[4,3-c]pyridine], the IC50 at FGFR2, at FGFR3 and against FGFR1 was below 100 nM in each case.

For the compound `CCN1Cc2cc(-c3n[nH]c4cc(-c5c(F)c(OC)cc(OC)c5Cl)ncc34)ccc2C1=O` [Example 69, 5-[6-(2-chloro-6-fluoro-3,5-dimethoxyphenyl)-1H-pyrazolo[4,3-c]pyridin-3-yl]-2-ethylisoindolin-1-one], the 50% inhibitory concentration (IC50) at FGFR2, at FGFR3 and against FGFR1 was below 100 nM each time.

As for `COc1cc(OC)c(Cl)c(-c2ncc3c(-c4ccc5c(c4)CCN(C)C5=O)n[nH]c3n2)c1Cl` [Example 9, 6-[6-(2,6-Dichloro-3,5-dimethoxyphenyl)-1H-pyrazolo[3,4-d]pyrimidin-3-yl]-2-methyl-3,4-dihydroisoquinolin-1(2H)-one], the IC50 at FGFR2, against FGFR3 and against FGFR1 was below 100 nM each time.

In the case of `COc1cc(OC)c(F)c(-c2ncc3c(-c4ccc5c(c4)CC(C(=O)N(C)C)O5)n[nH]c3n2)c1F` (single isomer, unassigned) [Example 5, 5-[6-(2,6-Difluoro-3,5-dimethoxyphenyl)-1H-pyrazolo[3,4-d]pyrimidin-3-yl]-N,N-dimethyl-2,3-dihydro-1-benzofuran-2-carboxamide], the IC50 on FGFR2, against FGFR3 and on FGFR1 was below 100 nM each time.

In the case of `COc1cc(OC)c(Cl)c(-c2cc3[nH]nc(-c4cnn(CC(=O)N5CC(O)C5)c4)c3cn2)c1Cl` [Example 39, 1-({4-[6-(2,6-Dichloro-3,5-dimethoxyphenyl)-1H-pyrazolo[4,3-c]pyridin-3-yl]-1H-pyrazol-1-yl}acetyl)azetidin-3-ol], the half-inhibitory concentration (IC50) on FGFR2, on FGFR3 and at FGFR1 was below 100 nM each time.

Turning to `COc1cc(OC)c(F)c(-c2cc3[nH]nc(-c4ccc5c(c4)CN(C4CCN(C)CC4)C5=O)c3cn2)c1F` [Example 66, 5-[6-(2,6-Difluoro-3,5-dimethoxyphenyl)-1H-pyrazolo[4,3-c]pyridin-3-yl]-2-(1-methylpiperidin-4-yl)isoindolin-1-one], the IC50 on FGFR2, at FGFR3 and against FGFR1 was below 100 nM in each case.

As for `COc1cc(OC)c(Cl)c(-c2cnc3c(-c4cnn(CCCO)c4)n[nH]c3c2)c1Cl` [Example 71, 3-{4-[6-(2,6-Dichloro-3,5-dimethoxyphenyl)-1H-pyrazolo[4,3-b]pyridin-3-yl]-1H-pyrazol-1-yl}propan-1-ol], the IC50 at FGFR2, at FGFR3 and at FGFR1 was below 100 nM in each case.

As for `COc1cc(OC)c(Cl)c(-c2cc3[nH]nc(-c4ccc5c(c4)CN(C4CC4)C5=O)c3cn2)c1Cl` [Example 28, 2-Cyclopropyl-5-[6-(2,6-dichloro-3,5-dimethoxyphenyl)-1H-pyrazolo[4,3-c]pyridin-3-yl]isoindolin-1-one], the IC50 on FGFR2, against FGFR3 and on FGFR1 was below 100 nM throughout.

In the case of `COc1cc(OC)c(F)c(-c2ncc3c(-c4ccnc(N5CCN(C)CC5)c4)n[nH]c3n2)c1F` [Example 19, 6-(2,6-Difluoro-3,5-dimethoxyphenyl)-3-[2-(4-methylpiperazin-1-yl)pyridin-4-yl]-1H-pyrazolo[3,4-d]pyrimidine], the IC50 on FGFR2, against FGFR3 and on FGFR1 was below 100 nM in each case.

Turning to `COc1cc(OC)c(Cl)c(-c2cc3[nH]nc(-c4ccc5c(c4)N(C)C(=O)CO5)c3cn2)c1Cl` [Example 31, 6-[6-(2,6-Dichloro-3,5-dimethoxyphenyl)-1H-pyrazolo[4,3-c]pyridin-3-yl]-4-methyl-2H-1,4-benzoxazin-3(4H)-one], the figures for the IC50 against FGFR2, against FGFR3 and against FGFR1 were 100 to 500 nM, below 100 nM and below 100 nM, respectively.

On to `COc1cc(OC)c(Cl)c(-c2cc3[nH]nc(-c4cnn(CC(=O)N5CCC(C#N)C5)c4)c3cn2)c1Cl` (stereo not drawn) [Example 47, 1-({4-[6-(2,6-Dichloro-3,5-dimethoxyphenyl)-1H-pyrazolo[4,3-c]pyridin-3-yl]-1H-pyrazol-1-yl}acetyl)pyrrolidine-3-carbonitrile], for which the IC50 on FGFR2, against FGFR3 and against FGFR1 was below 100 nM throughout.

Turning to `COc1cc(OC)c(Cl)c(-c2cc3[nH]nc(-c4cnn(CC(=O)N5CCC(OC)C5)c4)c3cn2)c1Cl` (stereo not drawn) [Example 45, 6-(2,6-Dichloro-3,5-dimethoxyphenyl)-3-{1-[2-(3-methoxypyrrolidin-1-yl)-2-oxoethyl]-1H-pyrazol-4-yl}-1H-pyrazolo[4,3-c]pyridine], the IC50 against FGFR2, against FGFR3 and at FGFR1 was below 100 nM each time.

With `COc1cc(OC)c(Cl)c(-c2ncc3c(-c4ccc5c(c4)CC(C(=O)N(C)C)O5)n[nH]c3n2)c1Cl` (stereo not drawn) [Example 1, 5-[6-(2,6-Dichloro-3,5-dimethoxyphenyl)-1H-pyrazolo[3,4-d]pyrimidin-3-yl]-N,N-dimethyl-2,3-dihydro-1-benzofuran-2-carboxamide], the half-inhibitory concentration (IC50) at FGFR2, at FGFR3 and at FGFR1 was below 100 nM in each case.

On to `COc1cc(OC)c(Cl)c(-c2ncc3c(-c4ccc5c(c4)CCC(C(=O)N(C)C)O5)n[nH]c3n2)c1Cl` (stereo not drawn) [Example 2, 6-[6-(2,6-Dichloro-3,5-dimethoxyphenyl)-1H-pyrazolo[3,4-d]pyrimidin-3-yl]-N,N-dimethylchromane-2-carboxamide], for which the half-inhibitory concentration (IC50) against FGFR2, against FGFR3 and on FGFR1 was below 100 nM throughout.

As to `COc1cc(OC)c(F)c(-c2ncc3c(-c4ccc5c(c4)CN(C4CCN(C)CC4)C5=O)n[nH]c3n2)c1F` [Example 79, 5-[6-(2,6-Difluoro-3,5-dimethoxyphenyl)-1H-pyrazolo[3,4-d]pyrimidin-3-yl]-2-(1-methylpiperidin-4-yl)isoindolin-1-one], the IC50 at FGFR2, at FGFR3 and against FGFR1 was below 100 nM each time.

As for `COc1cc(OC)c(F)c(-c2ncc3c(-c4ccc5c(c4)CN([C@H]4CC[C@@H](O)CC4)C5=O)n[nH]c3n2)c1F` [Example 16, 5-[6-(2,6-Difluoro-3,5-dimethoxyphenyl)-1H-pyrazolo[3,4-d]pyrimidin-3-yl]-2-(cis-4-hydroxycyclohexyl)isoindolin-1-one], the IC50 at FGFR2, against FGFR3 and against FGFR1 was below 100 nM throughout.

The record behind these values is patent publication US9266892B2, “Fused pyrazoles as FGFR inhibitors” (Incyte Corporation, priority 2012, dated 2016).
